The source of these data is the supplement of paper PMC11208160.
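Throughout, for recombinant UMI read abundance after kanamycin selection (control-corrected): IS621 bridge recombinase in Escherichia coli cells against a fixed T5 target plasmid.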
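Throughout, for recombinant barcode read abundance after kanamycin selection (control-corrected): IS621 recombinase and bridge RNA in Escherichia coli cells.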

The first series is described as follows: recombinant barcode read abundance after kanamycin selection (control-corrected) (log10(CPM+1)); higher = more efficient recombination; sequences stand for … in AGTGCAGAGAAAATCGGCCAGTTTTCTCTGCCTGCAGTCCGCATGCCGT…AGATTTATGCAGCGGACTGCCTTTCTCCCAAAGTGATAAACCGGACAGTATCATGGACCGGTTTTCCCGGTAATCCGTATTTGCAAGGTTGGTTTCACT; site = the 11-nt target. The method, then: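 Pooled E. coli target-specificity screen for the IS621 bridge recombinase. Each library plasmid pairs an 11-nt target (CT core) with a bridge RNA whose target-binding loop (9-nt LTG + 4-nt RTG) is reprogrammed; the rest of the 177-nt WT IS621 bridge RNA scaffold is fixed. The plasmid is co-electroporated with a WT donor plasmid; recombinase is induced with 0.1 mM IPTG and recombinants are selected on kanamycin. Recombinant barcodes are sequenced, converted to CPM, averaged over two biological replicates and corrected by the unselected control CPM. Molecule = full bridge RNA written as DNA: LTG = specificity nt 1-9, RTG = reverse complement of specificity nt 8-11, in the WT scaffold.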
On to “AAAAGTCCTTGGGTTCTAACCTGTTGCCT (site AAAAGTCCTAG)”, for which the “recombinant barcode read abundance (log10)” value is 1.11.
Still for that read-out and setting: in the case of “AAAAGTCCTTGGGTTCTAACCTGTTGCCT (site AAGAGTCCTAC)” it was 0.0517.
For “AAAATGCCTTGGGTTCTAACCTGTTGCCT (site AAAATGCCTAG)”, the “recombinant barcode read abundance (log10)” value worked out at 0.359.
Take “AAAATGCCTTGGGTTCTAACCTGTTGCCT (site CAAATGTCTAG)”: the “recombinant barcode read abundance (log10)” value amounted to 0.0967.

A further series can be described thus: recombinant UMI read abundance after kanamycin selection (control-corrected) (log10(CPM+1)); higher = more efficient recombination; extreme values may be limits of the assay; sequences stand for … in AGTGCAGAGAAAATCGGCCAGTTTTCTCTGCCTGCAGTCCGCATGCCGTGGGACCCCTTGGGTTCTAACCTGTTGCCTAGATTTATGCAGCGGACTGCCTTTCTCCCAAAGTGATAAACCGG…AGGTTGGTTTCACT; site = the 11-nt donor. In outline:
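Two replicates each of selected and unselected plating were used in this pooled Escherichia coli screen of donor and donor-binding-loop pairs for the IS621 bridge recombinase. Selection was with IPTG (0.07 mM) and kanamycin. Counts of recombinant UMIs, amplified across the donor–target junction, were converted to CPM, averaged, scaled by control-derived factors and reported as log10(CPM+1).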
As to “TTGAATTCATGGACCGGTTTTCCCGGTAATCCGTATTTGTT (site TTGAATTCTAA)”, the “recombinant UMI read abundance (log10)” value came out at 0.
Same read-out and setting: the result for “TTGCACGCATGGACCGGTTTTCCCGGTAATCCGTATTTGGT (site TTGCACGCTAC)” reads 0.647; that for “TTGCCGTCATGGACCGGTTTTCCCGGTAATCCGTATTTGGT (site TTGCCGTCTAC)”, 0.144.
Same read-out and setting: the result for “TTGCCTTCATGGACCGGTTTTCCCGGTAATCCGTATTTGGT (site TAGCCTTCTAC)” reads 0.0133; that for “TTGCCTTCATGGACCGGTTTTCCCGGTAATCCGTATTTGGT (site TCGCCTTCTAC)”, 0.00778.
On the same count and under the same terms, the result for “TTGCCTTCATGGACCGGTTTTCCCGGTAATCCGTATTTGGT (site TGGCCTTCTAC)” reads 0.0098.
For the sequence “TTGCCTTCATGGACCGGTTTTCCCGGTAATCCGTATTTGGT (site TTGCCTTCTAC)”, the “recombinant UMI read abundance (log10)” value was 0.00638.
On the same count and under the same terms, the result for “TTGCGGGCATGGACCGGTTTTCCCGGTAATCCGTATTTGGA (site TTGCGGGCTTC)” reads 0.00996; that for “TTGCGGGCATGGACCGGTTTTCCCGGTAATCCGTATTTGGG (site TTGCGGGCTCC)”, 0.00376; that for “TTGCGTTCATGGACCGGTTTTCCCGGTAATCCGTATTTGTC (site TTGCGTTCTGA)”, 0.
On the same count and under the same terms, the result for “TTGCTGGCATGGACCGGTTTTCCCGGTAATCCGTATTTGAG (site TTGCTGGCTCT)” reads 0; that for “TTGCTTACATGGACCGGTTTTCCCGGTAATCCGTATTTGAC (site TTGCTTACTGT)”, 0.
For the sequence “TTGGAATCATGGACCGGTTTTCCCGGTAATCCGTATTTGCG (site TAGGAATCTCG)”, the “recombinant UMI read abundance (log10)” value worked out at 1.81.
The same measure, in the same setting: in the case of “TTGGAATCATGGACCGGTTTTCCCGGTAATCCGTATTTGCG (site TCGGAATCTCG)” it was 0.968; in that of “TTGGAATCATGGACCGGTTTTCCCGGTAATCCGTATTTGCG (site TGGGAATCTCG)”, 0.00536; in that of “TTGGAATCATGGACCGGTTTTCCCGGTAATCCGTATTTGCG (site TTGGAATCTCG)”, 2.27.
Same read-out and setting: in the case of “TTGGCAACATGGACCGGTTTTCCCGGTAATCCGTATTTGCT (site TTGGCAACTAG)” it was 0.0704; in that of “TTGGCTGCATGGACCGGTTTTCCCGGTAATCCGTATTTGTG (site TTAGCTGCTCA)”, 0.0254.
Regarding “TTGGCTGCATGGACCGGTTTTCCCGGTAATCCGTATTTGTG (site TTCGCTGCTCA)”, the “recombinant UMI read abundance (log10)” value was 0.0142.
Still for that read-out and setting: the result for “TTGGCTGCATGGACCGGTTTTCCCGGTAATCCGTATTTGTG (site TTGGCTGCTCA)” reads 0.00853.
Same read-out and setting: the result for “TTGGCTGCATGGACCGGTTTTCCCGGTAATCCGTATTTGTG (site TTTGCTGCTCA)” reads 0.0121; that for “TTGGTAACATGGACCGGTTTTCCCGGTAATCCGTATTTGAG (site TTGGTAACTCT)”, 0.734; that for “TTGGTACCATGGACCGGTTTTCCCGGTAATCCGTATTTGCA (site TTGGTACCTTG)”, 0.00424.
Same read-out and setting: in the case of “TTGGTTCCATGGACCGGTTTTCCCGGTAATCCGTATTTGTG (site TTGGTTCCTCA)” it was 0.0354.
On to “TTGTAAGCATGGACCGGTTTTCCCGGTAATCCGTATTTGCA (site TTGTAAGCTTG)”, for which the “recombinant UMI read abundance (log10)” value is 1.17.
For the sequence “TTGTCGACATGGACCGGTTTTCCCGGTAATCCGTATTTGTC (site TTGTCGACTGA)”, the “recombinant UMI read abundance (log10)” value came to 0.433.
The same measure, in the same setting: in the case of “TTGTGCTCATGGACCGGTTTTCCCGGTAATCCGTATTTGGG (site TTGTGCTCTCC)” it was 0.0159; in that of “TTTAGCCCATGGACCGGTTTTCCCGGTAATCCGTATTTGCT (site TTTAGCCCTAG)”, 0; in that of “TTTATAGCATGGACCGGTTTTCCCGGTAATCCGTATTTGCG (site TTTATAGCTCG)”, 0.232.
Same read-out and setting: in the case of “TTTCACACATGGACCGGTTTTCCCGGTAATCCGTATTTGGA (site TTTCACACTTC)” it was 0.0104.
As to “TTTCACGCATGGACCGGTTTTCCCGGTAATCCGTATTTGGT (site TTTCACGCTAC)”, the “recombinant UMI read abundance (log10)” value was 0.0228.
Same read-out and setting: the result for “TTTCCTCCATGGACCGGTTTTCCCGGTAATCCGTATTTGCG (site TTTCCTCCTCG)” reads 0.0281.
The same measure, in the same setting: the result for “TTTCGAGCATGGACCGGTTTTCCCGGTAATCCGTATTTGCA (site ATTCGAGCTTG)” reads 0.411; that for “TTTCGAGCATGGACCGGTTTTCCCGGTAATCCGTATTTGCA (site CTTCGAGCTTG)”, 0.13.
In the case of “TTTCGAGCATGGACCGGTTTTCCCGGTAATCCGTATTTGCA (site GTTCGAGCTTG)”, the “recombinant UMI read abundance (log10)” value is 0.969.
Take “TTTCGAGCATGGACCGGTTTTCCCGGTAATCCGTATTTGCA (site TTTCGAGCTTG)”: the “recombinant UMI read abundance (log10)” value is 1.31.
Same read-out and setting: the result for “TTTCGCACATGGACCGGTTTTCCCGGTAATCCGTATTTGCG (site TTTCGCACTCG)” reads 0.00398; that for “TTTCGCACATGGACCGGTTTTCCCGGTAATCCGTATTTGTC (site TTTCGCACTGA)”, 0.308.
Turning to “TTTCGCCCATGGACCGGTTTTCCCGGTAATCCGTATTTGTG (site TTTCGCCCTCA)”, the “recombinant UMI read abundance (log10)” value was found to be 0.0225.
Still for that read-out and setting: in the case of “TTTGAATCATGGACCGGTTTTCCCGGTAATCCGTATTTGAC (site TTTGAATCTGT)” it was 0.
Same read-out and setting: in the case of “TTTGAGACATGGACCGGTTTTCCCGGTAATCCGTATTTGGT (site ATTGAGACTAC)” it was 0.0113; in that of “TTTGAGACATGGACCGGTTTTCCCGGTAATCCGTATTTGGT (site CTTGAGACTAC)”, 0.0146; in that of “TTTGAGACATGGACCGGTTTTCCCGGTAATCCGTATTTGGT (site GTTGAGACTAC)”, 0.0113.
Same read-out and setting: in the case of “TTTGAGACATGGACCGGTTTTCCCGGTAATCCGTATTTGGT (site TTTGAGACTAC)” it was 0.511; in that of “TTTGCGGCATGGACCGGTTTTCCCGGTAATCCGTATTTGCC (site TTTGCGGCTAG)”, 0.0224.
On to “TTTGCGGCATGGACCGGTTTTCCCGGTAATCCGTATTTGCC (site TTTGCGGCTCG)”, for which the “recombinant UMI read abundance (log10)” value came to 0.0088.
Still for that read-out and setting: in the case of “TTTGCGGCATGGACCGGTTTTCCCGGTAATCCGTATTTGCC (site TTTGCGGCTGG)” it was 0; in that of “TTTGCGGCATGGACCGGTTTTCCCGGTAATCCGTATTTGCC (site TTTGCGGCTTG)”, 0.0109; in that of “TTTGCGGCATGGACCGGTTTTCCCGGTAATCCGTATTTGCG (site TTTGCGGCTAG)”, 0.00371.
“TTTGCGGCATGGACCGGTTTTCCCGGTAATCCGTATTTGCG (site TTTGCGGCTCG)”: the “recombinant UMI read abundance (log10)” value stood at 0.0191.
On the same count and under the same terms, the result for “TTTGCGGCATGGACCGGTTTTCCCGGTAATCCGTATTTGCG (site TTTGCGGCTGG)” reads 0; that for “TTTGCGGCATGGACCGGTTTTCCCGGTAATCCGTATTTGCG (site TTTGCGGCTTG)”, 0.0091.
On the same count and under the same terms, in the case of “TTTGCTGCATGGACCGGTTTTCCCGGTAATCCGTATTTGCT (site TTTGCAGCTAG)” it was 0; in that of “TTTGCTGCATGGACCGGTTTTCCCGGTAATCCGTATTTGCT (site TTTGCCGCTAG)”, 0.0567; in that of “TTTGCTGCATGGACCGGTTTTCCCGGTAATCCGTATTTGCT (site TTTGCGGCTAG)”, 0.
Still for that read-out and setting: the result for “TTTGCTGCATGGACCGGTTTTCCCGGTAATCCGTATTTGCT (site TTTGCTGCTAG)” reads 0.00917; that for “TTTGTCACATGGACCGGTTTTCCCGGTAATCCGTATTTGGA (site TTTGTCACTTC)”, 0.187.
